Experiments:
[1] = tested on: T1, C. trachomatis L2/434/Bu expressing GFP (CTL2-GFP); test: microbe, parasite or virus in culture; design: C. trachomatis total inclusion area by high-content imaging, normalised to DMSO; conditions: Chlamydia trachomatis, HeLa, 28.5 h; total inclusion area; read-out: % of control remaining
T1 construct: L2/434/Bu GFP intracellular growth in HeLa cells
Summary of the method: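 Read-out combines bulk fluorescence and imaging: GFP tracks chlamydial growth, resorufin tracks host cell viability. Plates were then fixed and Hoechst-stained so inclusions and nuclei could be imaged and counted per well.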

[2] = tested on: T2, CTL2-GFP (C. trachomatis L2/434/Bu, GFP-expressing); test: microbe, parasite or virus in culture; design: Intracellular C. trachomatis growth in HeLa cells, bulk GFP fluorescence relative to DMSO; conditions: Chlamydia trachomatis, HeLa, 28.5 h; bulk GFP, mean of 2; read-out: % of control remaining
T2 construct: L2/434/Bu, GFP-expressing
Procedure: MICs were calculated as described above.

in vitro [3] = test: in vitro; design: Viability of infected HeLa host cells, resazurin conversion, bulk resorufin fluorescence relative to DMSO; conditions: human, hela cells; bulk resorufin, mean of 2
in vitro [4] = conditions: human, hela cells, % viability

| Compound | activity at 1 µM [1] | activity at 5 µM [1] | activity at 10 µM [1] | activity at 1 µM [2] | activity at 5 µM [2] | activity at 10 µM [2] | viability at 28.5 h, 1 µM (in vitro [3]) | viability at 28.5 h, 5 µM (in vitro [3]) | viability at 28.5 h, 10 µM (in vitro [3]) | viability at 28.5 h, 10 µM (in vitro [4]) |
| --- | --- | --- | --- | --- | --- | --- | --- | --- | --- | --- |
| CC(Nc1cccc2ccccc12)C(=O)N/N=C/c1ccc(O)cc1O (stereo not shown) [CBK262681] | 91.4% | 46.9% | 24.5% | 103% | 62.9% | 42.4% | 89.9% | 86.9% | 82.2% | 75.9% |
| O=C(Nc1cccc(OC(=O)c2cc(S(=O)(=O)N3CCCCC3)ccc2Cl)c1)c1ccco1 [CBK262186] | 101% | 85.8% | 33.3% | 110% | 106% | 76.3% | 101% | 96.6% | 100% | 110% |
| O=C(Nc1cc(Cl)nc(Cl)c1)N(Cc1ccc(-c2ccccc2)cc1)CC1CCNCC1 [CBK049794] | 62.1% | 41.7% | 25.8% | 115% | 90.8% | 90.8% | 95.2% | 100% | 97.9% | 82.6% |
| CCN(CC)CCNc1nc(-c2cccc(Cl)c2)nc2ccccc12 [CBK267265C] | 85% | 45.3% | 26.4% | 108% | 98.1% | 55.5% | 104% | 104% | 108% | 90.7% |
| COc1cccc(C(=O)/C=C\Nc2ccc(S(=O)(=O)Nc3onc(C)c3C)cc2)c1 [CBK264206] | 68.5% | 28.9% | 19% | 83.7% | 25.4% | 8.04% | 106% | 104% | 114% | 93.4% |
| Cc1cc(C(=O)Nc2cccc(S(=O)(=O)N3CCOCC3)c2)sc1-c1ccccc1 [CBK268185] | 107% | 82.1% | 51.4% | 102% | 88.9% | 77.7% | 106% | 96.9% | 98.5% | 102% |
| O=c1c2cnc3ccnn3c2ccn1C1CCCC1 [CBK288074] | 65.5% | 60.4% | 4.02% | 109% | 72.3% | 2.35% | 103% | 106% | 109% | 107% |
| CCC(c1ccc(F)cc1)N(C)C(=O)Cn1cc(C(=O)NC2CCCCC2)ccc1=O (stereo not shown) [CBK286106] | 114% | 27.8% | 2.51% | 128% | 21.7% | 7.58% | 89.5% | 95.3% | 87.5% | 89.8% |
| COc1ccc(C(C)C)cc1-c1cn2ccnc2c(N2CCN(c3ccncc3)CC2)n1 [CBK066217] | 96.6% | 75.5% | 31.5% | 91.5% | 63.5% | 28.4% | 102% | 104% | 101% | 116% |
| O=C(NCCc1c[nH]c2ccc(Cl)cc12)c1c(F)ccc(Cl)c1F [CBK159756] | 92.7% | 39.2% | 2.12% | 103% | 35.2% | 3.33% | 98.5% | 96.7% | 94.6% | 93% |

Reference: article PMC12040169 (PLOS Biology, 2025)
